According to ChEMBL document CHEMBL1137911, “Synthesis and evaluation of 4-triazolylflavans as new aromatase inhibitors” (Bioorg Med Chem Lett, 2004):

Assays:
[1] = biological target: T1, Aromatase (Homo sapiens, UniProt P11511); assay: In vitro inhibition of [1,2,6,7-3H]androstenedione binding to Aromatase of human placental microsomes
T1 sequence (P11511 whole entry): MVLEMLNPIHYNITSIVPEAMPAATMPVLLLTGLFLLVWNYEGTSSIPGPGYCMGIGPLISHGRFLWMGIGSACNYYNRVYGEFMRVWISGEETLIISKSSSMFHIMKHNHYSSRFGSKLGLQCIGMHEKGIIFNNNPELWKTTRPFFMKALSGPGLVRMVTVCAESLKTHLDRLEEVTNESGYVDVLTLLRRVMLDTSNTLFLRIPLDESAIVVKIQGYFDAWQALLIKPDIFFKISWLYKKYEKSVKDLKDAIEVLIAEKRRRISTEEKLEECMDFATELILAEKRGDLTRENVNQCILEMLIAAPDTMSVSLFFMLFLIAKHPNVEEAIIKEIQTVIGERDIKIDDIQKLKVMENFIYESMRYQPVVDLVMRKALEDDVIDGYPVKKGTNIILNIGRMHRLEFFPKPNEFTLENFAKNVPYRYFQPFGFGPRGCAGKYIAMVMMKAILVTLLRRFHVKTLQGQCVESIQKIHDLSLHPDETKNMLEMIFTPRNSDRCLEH

[2] = biological target: T1, Aromatase; assay: Relative potency for inhibition of aromatase binding compared to aminoglutethimide

COc1ccc2c(c1)OC(c1ccccc1)CC2n1cncn1 (stereo not drawn)
IC50 [1]: 1400 nM | Relative Potency [2]: 3.7

COc1ccc2c(c1)OC(c1ccccc1)CC2n1cnnc1 (stereo not drawn)
IC50 [1]: 31600 nM | Relative Potency [2]: 0.16

Oc1ccc2c(c1)OC(c1ccccc1)CC2n1cncn1 (stereo not drawn)
IC50 [1]: 430 nM | Relative Potency [2]: 12.1

Oc1ccc2c(c1)OC(c1ccccc1)CC2n1ccnc1 (stereo not drawn)
IC50 [1]: 40 nM | Relative Potency [2]: 126.8
